The experiment concerns the target human BACE1 (Homo sapiens, UniProt P56817). The experiment is described as follows: BACE1 fluorescent kinetic assay (cleavage of peptide substrate WABC-6). Format: biochemical. The settings on record: Activity Table, Examples 1-108; 10 nM enzyme, 25 μM substrate WABC-6, pH 4.5, room temperature. The procedure:
Evaluation of BACE1 Binding Affinity of Test Compounds
Fluorescent Kinetic Assays
Dilution and mixing steps: total reaction volume: 100 μL
100 μM substrate dilution in 1×PBS was prepared, and
Fluorescence Readings: Readings at λex 320 nm and λem 420 nm are taken every 40 sec for 30 min at room temperature and the linear slope for substrate cleavage rate (vi) determined.
human BACE1, sequence (P56817 46-501): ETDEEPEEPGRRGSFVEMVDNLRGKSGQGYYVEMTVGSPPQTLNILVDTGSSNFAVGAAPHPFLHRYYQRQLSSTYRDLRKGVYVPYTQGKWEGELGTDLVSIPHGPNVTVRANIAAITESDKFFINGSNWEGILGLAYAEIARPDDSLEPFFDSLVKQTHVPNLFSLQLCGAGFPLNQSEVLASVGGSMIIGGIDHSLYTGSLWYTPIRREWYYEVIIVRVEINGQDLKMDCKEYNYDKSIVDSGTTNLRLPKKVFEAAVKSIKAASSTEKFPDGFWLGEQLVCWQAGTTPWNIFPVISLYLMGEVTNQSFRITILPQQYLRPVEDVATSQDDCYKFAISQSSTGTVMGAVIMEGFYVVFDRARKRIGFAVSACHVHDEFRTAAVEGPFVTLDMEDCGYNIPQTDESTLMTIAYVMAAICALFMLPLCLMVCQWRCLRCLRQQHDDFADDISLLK
The IC50 is the concentration that inhibits the measured activity by half. A higher IC50 goes with weaker potency in that assay. The molecule `COCCC1CC(c2cccc(C3(c4ccc(OC(F)F)cc4)N=C(N)N(C)C3=O)c2)C1` (centres unmarked) [Example 59, 2-amino-5-[4-(difluoromethoxy)phenyl]-5-{3-[3-(2-methoxyethyl)cyclobutyl]phenyl}-3-methyl-3,5-dihydro-4H-imidazol-4-one] returned an IC50 of 110 to 1000 nM.
Regarding `CN1C(=O)C(c2ccc(OC(F)F)cc2)(c2cccc(Nc3ccccc3)c2)N=C1N` (centres unmarked) [Example 60, 2-amino-5-(3-anilinophenyl)-5-[4-(difluoromethoxy)phenyl]-3-methyl-3,5-dihydro-4H-imidazol-4-one], the IC50 fell in the range of 110 to 1000 nM.
With `CC(C)NCc1cccc(C2(c3ccc(OC(F)F)cc3)N=C(N)N(C)C2=O)c1` (centres unmarked) [Example 61, 2-Amino-5-(4-difluoromethoxy-phenyl)-5-[3-(isopropylamino-methyl)-phenyl]-3-methyl-3,5-dihydro-imidazol-4-one] the figure was 110 to 1000 nM; with `CN(C)Cc1cccc(C2(c3ccc(OC(F)F)cc3)N=C(N)N(C)C2=O)c1` (centres unmarked) [Example 62, 2-amino-5-[4-(difluoromethoxy)phenyl]-5-{3-[(dimethylamino)-methyl]phenyl}-3-methyl-3,5-dihydro-4H-imidazol-4-one], > 1000 nM.
With `CCNCc1cccc(C2(c3ccc(OC(F)F)cc3)N=C(N)N(C)C2=O)c1` (centres unmarked) [Example 63, 2-amino-5-[4-(difluoromethoxy)phenyl]-5-{3-[(ethylamino)methyl]phenyl}-3-methyl-3,5-dihydro-4H-imidazol-4-one] the figure was 110 to 1000 nM; with `CCCNCc1cccc(C2(c3ccc(OC(F)F)cc3)N=C(N)N(C)C2=O)c1` (centres unmarked) [Example 64, 2-amino-5-[4-(difluoromethoxy)phenyl]-3-methyl-5-{3-[(propylamino)-methyl]phenyl}-3,5-dihydro-4H-imidazol-4-one], 110 to 1000 nM.
With `CCCCNCc1cccc(C2(c3ccc(OC(F)F)cc3)N=C(N)N(C)C2=O)c1` (centres unmarked) [Example 65, 2-amino-5-{3-[(butylamino)methyl]phenyl}-5-[4-(difluoromethoxy)phenyl]-3-methyl-3,5-dihydro-4H-imidazol-4-one] the figure was 110 to 1000 nM.
In the case of `CN1C(=O)C(c2ccc(OC(F)F)cc2)(c2cccc(CN3CCCC3)c2)N=C1N` (centres unmarked) [Example 66, 2-amino-5-[4-(difluoromethoxy)phenyl]-3-methyl-5-[3-(pyrrolidin-1-ylmethyl)phenyl]-3,5-dihydro-4H-imidazol-4-one], the 50% inhibitory concentration (IC50) was > 1000 nM.
With `CN1C(=O)C(c2ccc(OC(F)F)cc2)(c2ccc(OC(F)F)cc2)N=C1N` [Example 67, 2-amino-5,5-bis[4-(difluoromethoxy)phenyl]-3-methyl-3,5-dihydro-4H-imidazol-4-one] the figure was > 1000 nM; with `CN1C(=O)C(c2ccc(OC(F)F)cc2)(c2cccc(CNCc3ccco3)c2)N=C1N` (centres unmarked) [Example 68, 2-amino-5-[4-(difluoromethoxy)phenyl]-5-(3-{[(2-furylmethyl)-amino]methyl}phenyl)-3-methyl-3,5-dihydro-4H-imidazol-4-one], 110 to 1000 nM; with `C=CC[C@@H](C)c1cccc(C2(c3ccc(OC(F)F)cc3)N=C(N)N(C)C2=O)c1` (stereo partly drawn) [Example 69, 2-amino-4-(4-(difluoromethoxy)phenyl)-1-methyl-4-(3-((R)-pent-4-en-2-yl)phenyl)-1H-imidazol-5(4H)-one], 110 to 1000 nM.
With `CN1C(=O)C(c2ccc(OC(F)F)cc2)(c2cccc(C3CC3)c2)N=C1N` (centres unmarked) [Example 70, 2-amino-4-(3-cyclopropylphenyl)-4-(4-(difluoromethoxy)phenyl)-1-methyl-1H-imidazol-5(4H)-one], the IC50 was > 1000 nM.
With `COC/C=C(\C)c1cccc(C2(c3ccc(OC(F)F)cc3)N=C(N)N(C)C2=O)c1` (centres unmarked) [Example 71, (E)-2-amino-4-(4-(difluoromethoxy)phenyl)-4-(3-(4-methoxybut-2-en-2-yl)phenyl)-1-methyl-1H-imidazol-5(4H)-one] the figure was 110 to 1000 nM; with `CCOCCC#Cc1cccc(C2(c3ccc(OC(F)F)cc3)N=C(N)N(C)C2=O)c1` (centres unmarked) [Example 73, 2-Amino-5-[4-(difluoromethoxy)phenyl]-5-[3-(4-ethoxybut-1-yn-1-yl)phenyl]-3-methyl-3,5-dihydro-4H-imidazol-4-one], < 100 nM; with `Cc1cccc(C2(c3ccc(OC(F)F)cc3)N=C(N)N(C)C2=O)c1` (centres unmarked) [Example 74, 2-Amino-5-[4-(difluoromethoxy)phenyl]-3-methyl-5-(3-methylphenyl)-3,5-dihydro-4H-imidazol-4-one], 110 to 1000 nM.
With `CC=Cc1cc(C2(c3ccc(OC(F)F)cc3)N=C(N)N(C)C2=O)ccc1F` (centres unmarked) [Example 75A, 2-amino-5-[4-(difluoromethoxy)phenyl]-5-(4-fluoro-3-prop-1-en-1-ylphenyl)-3-methyl-3,5-dihydro-4H-imidazol-4-one] the figure was 110 to 1000 nM.
`C/C=C\c1cc(C2(c3ccc(OC(F)F)cc3)N=C(N)N(C)C2=O)ccc1F` (centres unmarked) [Example 75B, 2-amino-5-[4-(difluoromethoxy)phenyl]-5-{4-fluoro-3-[(1Z)-prop-1-en-1-yl]phenyl}-3-methyl-3,5-dihydro-4H-imidazol-4-one] gave an IC50 of 110 to 1000 nM.
With `C/C=C/c1cc(C2(c3ccc(OC(F)F)cc3)N=C(N)N(C)C2=O)ccc1F` (centres unmarked) [Example 75C, 2-amino-5-[4-(difluoromethoxy)phenyl]-5-{4-fluoro-3-[(1E)-prop-1-en-1-yl]phenyl}-3-methyl-3,5-dihydro-4H-imidazol-4-one] the figure was > 1000 nM.
As to `C/C=C\c1cc([C@]2(c3ccc(OC(F)F)cc3)N=C(N)N(C)C2=O)ccc1F` [Example 76A, (5S)-2-amino-5-[4-(difluoromethoxy)phenyl]-5-{4-fluoro-3-[(1Z)-prop-1-en-1-yl]phenyl}-3-methyl-3,5-dihydro-4H-imidazol-4-one], the IC50 is > 1000 nM.
As to `C/C=C\c1cc([C@@]2(c3ccc(OC(F)F)cc3)N=C(N)N(C)C2=O)ccc1F` [Example 76B, (5R)-2-amino-5-[4-(difluoromethoxy)phenyl]-5-{4-fluoro-3-[(1Z)-prop-1-en-1-yl]phenyl}-3-methyl-3,5-dihydro-4H-imidazol-4-one], the IC50 was > 1000 nM.
On to `C/C=C/c1cc([C@]2(c3ccc(OC(F)F)cc3)N=C(N)N(C)C2=O)ccc1F` [Example 77A, (5S)-2-amino-5-[4-(difluoromethoxy)phenyl]-5-{4-fluoro-3-[(1E)-prop-1-en-1-yl]phenyl}-3-methyl-3,5-dihydro-4H-imidazol-4-one], for which the half-maximal inhibitory concentration (IC50) is > 1000 nM.
With `C/C=C/c1cc([C@@]2(c3ccc(OC(F)F)cc3)N=C(N)N(C)C2=O)ccc1F` [Example 77B, (5R)-2-amino-5-[4-(difluoromethoxy)phenyl]-5-{4-fluoro-3-[(1E)-prop-1-en-1-yl]phenyl}-3-methyl-3,5-dihydro-4H-imidazol-4-one] the figure was < 100 nM; with `CN1C(=O)C(c2ccc(OC(F)F)cc2)(c2cccc(O)c2)N=C1N` (centres unmarked) [Example 81, 2-Amino-5-[4-(difluoromethoxy)phenyl]-5-(3hydroxyphenyl)-3-methyl-3,5-dihydro-4H-imidazol-4-one], 110 to 1000 nM.
With `CN1C(=O)C(c2ccc(OC(F)F)cc2)(c2ccc(F)c(N3CCOCC3)c2)N=C1N` (centres unmarked) [Example 86, 2-amino-4-(4-(difluoromethoxy)phenyl)-4-(4-fluoro-3-morpholinophenyl)-1-methyl-1H-imidazol-5(4H)-one] the figure was 110 to 1000 nM.
With `C=CC#Cc1cc(C2(c3ccc(OC(F)F)cc3)N=C(N)N(C)C2=O)ccc1F` (centres unmarked) [Example 87, 2-amino-4-(3-(but-3-en-1-ynyl)-4-fluorophenyl)-4-(4-(difluoromethoxy)phenyl)-1-methyl-1H-imidazol-5(4H)-one] the figure was < 100 nM; with `CN1C(=O)C(c2ccc(OC(F)F)cc2)(c2cccc(Cc3ccco3)c2)N=C1N` (centres unmarked) [Example 88, 2-amino-4-(4-(difluoromethoxy)phenyl)-4-(3-(furan-2-ylmethyl)phenyl)-1-methyl-1H-imidazol-5(4H)-one], 110 to 1000 nM.
For the molecule `CN1C(=O)C(c2ccc(OC(F)F)cc2)(c2ccc(F)c(OCCC(F)F)c2)N=C1N` (centres unmarked) [Example 92, 2-Amino-5-[4-(difluoromethoxy)phenyl]-5-[3-(3,3-difluoropropoxy)-4-fluorophenyl]-3-methyl-3,5-dihydro-4H-imidazol-4-one], the IC50 was < 100 nM.
With `CN1C(=O)[C@](c2ccc(OC(F)F)cc2)(c2ccc(F)c(OCCC(F)F)c2)N=C1N` [Example 93, (5S)-2-Amino-5-[4-(difluoromethoxy)phenyl]-5-[3-(3,3-difluoropropoxy)-4-fluorophenyl]-3-methyl-3,5-dihydro-4H-imidazol-4-one] the figure was 110 to 1000 nM; with `CN1C(=O)[C@@](c2ccc(OC(F)F)cc2)(c2ccc(F)c(OCCC(F)F)c2)N=C1N` [Example 94, (5R)-2-Amino-5-[4-(difluoromethoxy)phenyl]-5-[3-(3,3-difluoropropoxy)-4-fluorophenyl]-3-methyl-3,5-dihydro-4H-imidazol-4-one], < 100 nM.
With `Cc1cccc(C2(c3ccc(OC(F)F)cc3)N=C(N)N(C)C2=O)c1` (centres unmarked) [Example 95, 2-Amino-5-[4-(difluoromethoxy)phenyl]-3-methyl-5-(3-methylphenyl)-3,5-dihydro-4H-imidazol-4-one] the figure was 110 to 1000 nM; with `CCOCCC#Cc1cccc(C2(c3ccc(OC(F)F)cc3)N=C(N)N(C)C2=O)c1` (centres unmarked) [Example 96, 2-Amino-5-[4-(difluoromethoxy)phenyl]-5-[3-(4-ethoxybut-1-yn-1-yl)phenyl]-3-methyl-3,5-dihydro-4H-imidazol-4-one], < 100 nM; with `CN1C(=O)C(c2ccc(OC(F)F)cc2)(c2ccc(F)c(C#CCF)c2)N=C1N` (centres unmarked) [Example 99, 2-amino-5-[4-(difluoromethoxy)phenyl]-5-[4-fluoro-3-(3-fluoroprop-1-yn-1-yl)phenyl]-3-methyl-3,5-dihydro-4H-imidazol-4-one], < 100 nM.
